Entries after “also recorded” stand apart in the source; their conditions may differ. Values belong to the compound of their own block, whether it stands above or below them.
Key:
[1] = target: rat whole brain; settings: read-out: Kd of radioligand, rat brain; assay condition of the binding assay; ref MDS Pharma Services; cited from earlier work
[2] = target: T1, human MOR-GFP (Homo sapiens, UniProt P35372); assay type: cell-based
T1 construct: Human MOR cDNAs (NM_000914) with or without a stop codon were amplified from the Flexi ORF clone; expressed in transfected cells

[3] = target: T2, human MOR (Homo sapiens, UniProt P35372); assay type: cell-based; set-up: Human MOR cDNAs (NM_000914) with or without a stop codon were amplified from the Flexi ORF clone; expressed in transfected cells; pcDNA3.1(+); the cAMP line also carries pGloSensor-22F
[4] = target: human KOR (Homo sapiens, UniProt P41145); assay: Receptor binding assay, primary screening, [3H]-diprenorphine, KOR; settings: 10 μM test compound, mean n = 2
[5] = Rat pharmacokinetic study of GJG, plasma LC/MS/MS; assay type: in vivo; settings: GJG 1 g/kg oral, 1 h after administration
Method: A pharmacokinetic study of GJG was performed to identify the bioavailable molecules in PAT. GJG (1 g/kg) was orally administered to rats and blood samples were collected 1 h after administration. Then, representative components of PAT in the collected blood samples were measured by LC/MS/MS. […] Therefore, we further investigated whether ignavine and benzoylmesaconine affect the opioid system.
Male Sprague-Dawley rats (7 weeks, Japan Clea Inc., Tokyo, Japan) were fasted for more than 16 hours with access to water. At 1 h after oral administration of GJG (1.0 g/10 mL/kg, n = 5), blood samples were collected with a heparin-coated syringe and centrifuged at 1,500 × g for 15 minutes at 4 °C. The plasma samples were stored at −80 °C until use.
Plasma samples were pretreated by solid-phase extraction (Oasis® MCX μ Elution Plate, 30 μm; Waters Corporation, Milford, MA, USA) and injected into the LC/MS/MS system for analysis. Components of GJG in plasma were measured by a QTRAP®5500 system (AB SCIEX, Framingham, MA, USA) equipped with an Agilent 1260 HPLC system (binary pump, online degasser, auto plate-sampler and column oven; Agilent Technologies, Santa Clara, CA, USA). The lower limits for quantification were 0.01 ng/mL for ignavine; 0.002 ng/mL for benzoylaconine; 0.001 ng/mL for benzoylmesaconine, benzoylhypaconine and 14-anisoylaconine.

[6] = tested on: rat whole brain; assay: Receptor binding assay, primary screening, [3H]-naloxone, rat whole brain; settings: 10 μM test compound, mean n = 2
[7] = target: human nociception receptor (NOP) (Homo sapiens, UniProt P41146); assay: Receptor binding assay, primary screening, [3H]-nociceptin, NOP; settings: 10 μM test compound, mean n = 2
[8] = target: human δ opioid receptor (DOR) (Homo sapiens, UniProt P41143); assay: Receptor binding assay, primary screening, [3H]-naltrindole, DOR; settings: 10 μM test compound, mean n = 2
[9] = target: T2, human MOR; assay: biochemical; assay type: binding; settings: for % Inhibition of [3H]-diprenorphine binding, MOR: 10 μM test compound, mean n = 2
[10] = target: human μ opioid receptor (MOR) (human) (UniProt P35372)
[11] = set-up: method as in PMID 7116516; settings: acetic acid-induced writhing and carrageenan paw edema test; cited from earlier work
[12] = tested on: normal mice; assay: Tail-pressure test; assay type: in vivo
Method: (§1) Analgesic activity of ignavine was investigated by the tail-flick (Fig. 6A) and tail-pressure tests in normal mice (Fig. 6B). […] Maximum activity was shown at a dose of 0.1 mg/kg and analgesic activity was attenuated at higher doses. These dose-dependent relationships were similar to the results of in vitro assays.
(§2) Antinociceptive responses were evaluated by the tail-flick test (Tail flick unit; Ugo Basile, Comerio, Italy) and the tail-pressure test (Pressure analgesimeter; Ugo Basile). The latency (sec) or weight (g) at which mice struggled or withdrew was considered the nociceptive threshold.

[13] = target: T2, human MOR; assay: biochemical; assay type: binding; set-up: Human MOR cDNAs (NM_000914) with or without a stop codon were amplified from the Flexi ORF clone; expressed in transfected cells; pcDNA3.1(+); the cAMP line also carries pGloSensor-22F
[14] = tested on: normal mice; assay: Tail-flick test; assay type: in vivo
Method: as §1, §2

[15] = intra-peritoneal administration, area under the curve
[16] = intra-peritoneal, attenuated at higher doses

T1 sequence (P35372 whole entry): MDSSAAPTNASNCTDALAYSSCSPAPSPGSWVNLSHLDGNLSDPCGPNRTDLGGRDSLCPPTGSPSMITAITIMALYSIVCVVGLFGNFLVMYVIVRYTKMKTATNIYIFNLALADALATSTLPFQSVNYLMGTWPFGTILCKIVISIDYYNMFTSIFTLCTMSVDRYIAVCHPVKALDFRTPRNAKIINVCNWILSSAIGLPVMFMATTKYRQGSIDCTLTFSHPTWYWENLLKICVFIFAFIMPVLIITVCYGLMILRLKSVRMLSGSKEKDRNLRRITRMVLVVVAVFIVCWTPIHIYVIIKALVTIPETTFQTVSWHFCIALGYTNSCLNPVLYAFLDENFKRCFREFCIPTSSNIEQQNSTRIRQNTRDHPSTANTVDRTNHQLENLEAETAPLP
T2 sequence (P35372 whole entry): as above
Chain of human KOR (P41145 whole entry): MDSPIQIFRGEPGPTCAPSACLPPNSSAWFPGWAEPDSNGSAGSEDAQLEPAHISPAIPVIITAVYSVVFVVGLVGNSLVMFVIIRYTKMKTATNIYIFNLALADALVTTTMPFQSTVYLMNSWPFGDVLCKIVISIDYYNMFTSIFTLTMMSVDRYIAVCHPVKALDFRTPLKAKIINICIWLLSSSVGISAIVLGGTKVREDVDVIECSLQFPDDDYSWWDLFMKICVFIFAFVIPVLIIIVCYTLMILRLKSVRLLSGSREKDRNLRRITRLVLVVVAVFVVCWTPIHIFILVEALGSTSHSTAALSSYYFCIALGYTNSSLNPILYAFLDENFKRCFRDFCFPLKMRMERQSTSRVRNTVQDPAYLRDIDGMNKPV
Chain of human μ opioid receptor (MOR) (human) (P35372 whole entry): as the sequence (P35372 whole entry) above
Chain of human δ opioid receptor (DOR) (P41143 whole entry): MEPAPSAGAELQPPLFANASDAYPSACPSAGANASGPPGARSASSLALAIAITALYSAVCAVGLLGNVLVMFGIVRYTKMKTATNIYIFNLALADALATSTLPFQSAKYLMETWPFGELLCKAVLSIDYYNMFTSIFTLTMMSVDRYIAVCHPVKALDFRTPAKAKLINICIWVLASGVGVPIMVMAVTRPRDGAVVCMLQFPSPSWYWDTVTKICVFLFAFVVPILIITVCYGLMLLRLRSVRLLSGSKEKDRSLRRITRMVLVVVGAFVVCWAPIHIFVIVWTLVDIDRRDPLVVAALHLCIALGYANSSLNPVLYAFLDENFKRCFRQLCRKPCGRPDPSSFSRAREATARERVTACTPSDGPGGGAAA
Chain of human nociception receptor (NOP) (P41146 whole entry): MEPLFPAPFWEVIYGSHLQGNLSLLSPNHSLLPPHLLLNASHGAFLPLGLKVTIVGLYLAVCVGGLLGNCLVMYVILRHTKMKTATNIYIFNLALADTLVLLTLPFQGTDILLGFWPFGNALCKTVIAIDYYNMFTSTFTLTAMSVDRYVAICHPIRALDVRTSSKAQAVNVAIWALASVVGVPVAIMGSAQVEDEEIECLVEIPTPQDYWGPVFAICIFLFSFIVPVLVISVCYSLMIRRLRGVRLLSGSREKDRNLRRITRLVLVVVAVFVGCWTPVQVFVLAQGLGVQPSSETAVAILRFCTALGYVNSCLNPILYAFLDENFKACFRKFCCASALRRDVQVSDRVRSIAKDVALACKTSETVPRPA

Compound: C=CCN1CC[C@]23c4c5ccc(O)c4O[C@H]2C(=O)CC[C@@]3(O)[C@H]1C5 [naloxone]
Kd [1]: 1.4 nM

Compound: C[C@@H](NC(=O)[C@@H](N)Cc1ccc(O)cc1)C(=O)NCC(=O)N(C)[C@@H](Cc1ccccc1)C(=O)NCCO [DAMGO, D-Ala(2)-N-Me-Phe(4)-Gly-ol(5)-enkephalin, reference compound]
MOR internalization (vesicle formation) [2]: vesicles were observed in the intracellular space; also recorded: induced vesicle formation
Effect on forskolin-induced increase of intracellular cAMP [3]: inhibited the increase of intracellular cAMP

Compound: COC[C@]12CN(C)C3[C@@H]4[C@H](OC)[C@H]1[C@@]3([C@@H](OC)C[C@H]2O)[C@@H]1C[C@@]2(O)[C@H](OC(=O)c3ccccc3)[C@@H]1[C@]4(O)[C@@H](O)[C@@H]2OC [benzoylmesaconine]
% Inhibition of [3H]-diprenorphine binding, KOR ([4]; 10 µM): Neither ignavine nor benzoylmesaconine inhibited
% Inhibition of [3H]-diprenorphine binding, KOR ([4]; listed as Benzoylmesaconine, 10 µM): 3%
Plasma concentration after oral GJG [5]: higher concentrations
% Inhibition of [3H]-naloxone binding, rat brain [6]: 17%
% Inhibition of radioligand binding, NOP [7]: -9%
% Inhibition of radioligand binding, DOR [8]: -8%
% Inhibition of [3H]-diprenorphine binding, MOR [9]: 2%

EC50 of DAMGO in the intracellular cAMP assay, fold change with 1 μM ignavine against DMSO, 7.5 min after forskolin [10]: 3.8 fold
EC50 of DAMGO in the intracellular cAMP assay, fold change with 10 μM ignavine against DMSO, 23.5 min after forskolin [10]: 3.3 fold
Compound: D-Ala(2)-N-Me-Phe(4)-Gly-ol(5)-enkephalin (peptide)

Compound: C=C1C2CC3C4N5CC6(C)C(O)C(OC(=O)c7ccccc7)CC47C6C5CC3(C1O)C7(O)C2 (stereo not shown) [ignavine]
% Inhibition of [3H]-diprenorphine binding, KOR [4]: Neither ignavine nor benzoylmesaconine inhibited
inhibition at 10 µM [4]: 0%
Anti-inflammatory activity and adverse effects [11]: anti-inflammatory activity
Plasma concentration after oral GJG [5]: highest concentration among the measured components; also recorded: higher concentrations
MOR internalization, ignavine alone [2]: did not affect receptor internalization
Analgesic activity, tail-pressure test [12, 15]: inhibited pain
Dose of maximum analgesic activity, tail-pressure test [12, 16]: 0.1 mg/kg
% Inhibition of [3H]-naloxone binding, rat brain ([6]; 10 µM): also inhibited its binding
% Inhibition of [3H]-naloxone binding, rat brain ([6]; listed as Ignavine, 10 µM): 92%
inhibition at 10 µM ([7]; read-out: % Inhibition of radioligand binding, NOP): -7%
IC50 [13]: 2000 nM
inhibition at 10 µM ([8]; read-out: % Inhibition of radioligand binding, DOR): -5%
Analgesic activity, tail-flick test [14, 15]: inhibited pain
Dose of maximum analgesic activity, tail-flick test [14, 16]: 0.1 mg/kg
% Inhibition of [3H]-diprenorphine binding, MOR [9]: almost completely inhibited
inhibition at 10 µM ([9]; read-out: % Inhibition of [3H]-diprenorphine binding, MOR): 90%
Effect on intracellular cAMP levels, ignavine alone [3]: no effect
Fold increase of EC50 of DAMGO [3]: 3.3 fold
Modulation of DAMGO activity in cAMP assay, early period [3]: enhancing the activity of DAMGO
Modulation of DAMGO activity in cAMP assay, later period [3]: inhibiting DAMGO activity
Modulation of endomorphin-1 (EMP-1) activity in cAMP assay [3]: positive modulation
Modulation of endomorphin-1 activity in cAMP assay [3]: inhibited them
Modulation of morphine (MRP) activity in cAMP assay [3]: positive modulation
Modulation of morphine activity in cAMP assay [3]: inhibited them
Response in cAMP assay in the presence of naloxone [3]: did not show a clear response
